Measured values from article PMC6145453 (ACS infectious diseases, 2018).
Values joined by “and” are separate entries in the source; they are usually repeats but may differ in a detail not shown here. Equal values may be shown once. “Also recorded” adds a separate entry of the source.

Assays:
[1] = tested on: B/Yamagata/16/1988; test: microbe, parasite or virus in culture; assay type: cell-based; details: Influenza B virus, MDCK
[2] = tested on: viral mRNA, vRNA and protein expression, rY40F-WSN virus; assay type: cell-based, influenza A virus
[3] = tested on: NP (A/WSN/33 infected A549 cells); assay type: cell-based, influenza A virus
[4] = tested on: purified recombinant wild-type WSN NP protein; assay type: biochemical, influenza A/WSN/33 virus
[5] = tested on: influenza A/WSN/33 virus; test: microbe, parasite or virus in culture; assay type: cell-based, influenza A virus (H1N1); details: for IC50: Influenza A virus, H1N1|WSN, A549, 24 h
[6] = tested on: B/Brisbane/60/2008; test: microbe, parasite or virus in culture; assay type: cell-based; details: Influenza B virus, MDCK, 24 h
[7] = tested on: A/Vietnam/1203/2004 (H5N1-Halo) GFP virus; test: microbe, parasite or virus in culture; assay type: cell-based, influenza A virus; details: for IC50: Influenza A virus, H5N1, read-out: H5N1 IC50
[8] = tested on: influenza A/WSN/33 virus; test: microbe, parasite or virus in culture; assay type: cell-based, influenza A virus (H1N1); details: MDCK
[9] = tested on: A/Panama/2007/1999 (H3N2); test: microbe, parasite or virus in culture; assay type: cell-based, influenza A virus; details: for IC50: Influenza A virus, H3N2, A549
[10] = tested on: A/California/04/2009 (H1N1); test: microbe, parasite or virus in culture; assay type: cell-based, influenza A virus; details: for IC50: Influenza A virus, H1N1, A549
[11] = tested on: A/Brisbane/59/2007-S (oseltamivir sensitive); test: microbe, parasite or virus in culture; assay type: cell-based; details: Influenza A virus, H1N1, A549, 24 h
[12] = tested on: influenza A/WSN/33 virus; assay type: cell-based
[13] = tested on: A/Wyoming/03/2003 (H3N2); test: microbe, parasite or virus in culture; assay type: cell-based; details: Influenza A virus, H3N2, A549, 24 h
[14] = tested on: viral mRNA, vRNA and protein expression, A/WSN/33; assay type: cell-based, influenza A virus
[15] = tested on: A549 cells
[16] = tested on: A/Puerto Rico/8/1934 (H1N1); test: microbe, parasite or virus in culture; assay type: cell-based, influenza A virus; details: for IC50: Influenza A virus, H1N1, A549, 24 h
[17] = tested on: NP (A/WSN/33 infected A549 cells); assay type: cell-based, influenza A virus; remark: listed apart in the source
[18] = tested on: A/Vietnam/1203/2004 (H5N1); test: microbe, parasite or virus in culture; assay type: cell-based, influenza A virus; details: for IC50: Influenza A virus, H5N1, A549
[19] = tested on: A/Puerto Rico/8/1934 (H1N1) virus expressing GFP; test: microbe, parasite or virus in culture; assay type: cell-based, influenza A virus; details: for IC50: Influenza A virus, H1N1, read-out: PRS IC50
[20] = tested on: PR8-GFP virus; assay type: cell-based, influenza A virus
[21] = tested on: vesicular stomatitis virus (VSV); assay type: cell-based
[22] = in vitro; details: human
[23] = in vitro; details: dog

| SMILES | IC50 [1] [µM] | inhibition of transcription and replication of rY40F-WSN virus [2] | effect on NP oligomer size [3] | effect on low molecular weight NP pool [3] | effect on NP oligomer ladder / low molecular weight band [4] | effect on low molecular weight NP band [4] | IC50 [5] [µM] | IC50 [6] [µM] | IC50 [7] [µM] | IC50 [9] [µM] | IC50 [10] [µM] | IC50 [11] [µM] | IC50 [13] [µM] | IC50 [16] [µM] | NP localization [17] | time of appearance of NP aggregates [17] | IC50 [18] [µM] | IC50 [19] [µM] | other results |
| --- | --- | --- | --- | --- | --- | --- | --- | --- | --- | --- | --- | --- | --- | --- | --- | --- | --- | --- | --- |
| CC(C)(C)c1ccc(C(=O)Nc2ccc(NC(=O)c3ccc(C(C)(C)C)cc3)cc2)cc1 [S119, N,N′-(1,4-Phenylene)bis(4-(tert-butyl)benzamide)] | > 50 | completely resistant | shift to smaller oligomers | distinct loss | low molecular weight band is completely lost | low molecular weight NP band is lost | 0.02 | > 50 | > 50 | > 50 | 27.4 | > 50 | > 50 | > 50 | NP translocation to the nucleus was delayed | not until the 24 h post-infection time point | > 50 | > 50 | reduction in WSN viral titers [5]: 4 log; antiviral activity on screened strain [7]: no detectable antiviral activity; IC50 [8]: 0.06 µM; activity against strain [9]: ineffective; reduction in infectious titer [10]: 77%; effect on viral titer when added at 6 h after infection [12]: 1 log; virus inhibition when added 4 h after infection [12]: significant virus inhibition; virus inhibition when added before infection and up to 2 h after infection [12]: maximally inhibit; NP protein levels [14]: moderately reduced; NS1 protein expression [14]: unaffected; mRNA expression from the NP segment [14]: severely reduced; mRNA expression from the NS segment [14]: slightly reduced; mRNA expression from the PB2 segment [14]: reduced to undetectable levels; vRNA from any segment [14]: could not be detected; Cytotoxicity ([15]; A549 cells, concentrations as high as 500 μM): very little toxicity; activity against strain [16]: ineffective; activity against strain [18]: ineffective; antiviral activity on screened strain [19]: no detectable antiviral activity |
| CC(C)(C)c1ccc(C(=O)Nc2cccc(NC(=O)c3ccc(C(C)(C)C)cc3)c2)cc1 [S119-6, N,N′-(1,3-phenylene)bis(4-(tert-butyl)benzamide)] |  |  |  |  |  |  |  |  | > 50 |  |  |  |  |  |  |  |  | > 50 |  |
| CC(C)(C)c1ccc(C(=O)Nc2ccc(Nc3ccccc3)cc2)cc1 [S119-8, 4-(tert-butyl)-N-(4-(phenylamino)-phenyl)benzamide] | 2.08 |  |  |  |  |  | 1.43 | 15.2 | 8.42 | 6.43 | 5.32 | 6.68 | 11.5 | 6.05 |  |  | 7.94 | 6.05 | combination index [20]: 0.79 and 0.57; type of interaction [20]: synergistic; also recorded: additive to slightly synergistic; inhibition of VSV [21]: did not inhibit; also recorded: does not inhibit; CC50 ([22]; CC50): > 50 µM; CC50 ([22]; CC50 (50% cytotoxic concentration)): 66.1 µM; CC50 ([15]; human): 40.7 µM; CC50 [23]: > 50 µM |
| Cc1onc(-c2ccccc2)c1C(=O)N1CCN(c2ccc([N+](=O)[O-])cc2Cl)CC1 [nucleozin, reference compound] |  | efficient inhibition | shift to smaller oligomers | distinct loss | oligomer ladder becomes a smear | low molecular weight NP band is lost |  |  |  |  |  |  |  |  | NP remains exclusively in the cytoplasm | visible aggregates by 4 h post-infection |  |  | mRNA, vRNA and viral protein expression from PB2, NP and NS segments [14]: complete loss |
| CC(C)(C)c1ccc(C(=O)Nc2ccc(Oc3ccccc3)cc2)cc1 [S119-3, 4-(tert-butyl)-N-(4-phenoxyphenyl)benzamide] |  |  |  |  |  |  |  |  | 17.4 |  |  |  |  |  |  |  |  | 11.4 |  |
| CC(C)(C)c1ccc(NC(=O)c2ccc(C(C)(C)C)cc2)cc1 [S119-2, 4-(tert-butyl)-N-(4-(tert-butyl)phenyl)benzamide] |  |  |  |  |  |  |  |  | 44.5 |  |  |  |  |  |  |  |  | 13.9 |  |
